Assay results from DBAASP.
Converted amounts (≈) assume the structure as drawn.

Columns and labels:
Assay in all cases: ≥ marks a high value that may be exact or a test limit, other limits are often not marked, values filed in µg/mL are converted to µM
[1] = tested on: Bacillus magaterium AB90008
[2] = tested on: Candida tropicalis AY91009
[3] = tested on: Enterobacter cloacae AB2010162
Enterococcus sp. S13 = tested on: Enterococcus sp. S13
[4] = tested on: Escherichia coli DH5alpha
[5] = tested on: Klebsiella oxytoca AB2010143
[6] = tested on: Micrococcus luteus AB2010179
Pseudomonas putida = tested on: Pseudomonas putida
[7] = tested on: Salmonella enterica AB2010185
[8] = tested on: Staphylococcus aureus 16472
[9] = tested on: Staphylococcus aureus AB94004
[10] = tested on: Acinetobacter baumannii ATCC 17978
[11] = tested on: Acinetobacter baumannii AYE
Bacillus subtilis = tested on: Bacillus subtilis
[12] = tested on: Candida glabrata NCPF 8018
Candida krusei NCPF 3876 = tested on: Candida krusei NCPF 3876
[13] = tested on: Candida parapsilosis NCPF 3209
[14] = tested on: Candida tropicalis NCPF 8760
[15] = tested on: Escherichia coli ATCC 25922
Escherichia coli LEC001 = tested on: Escherichia coli LEC001
[16] = tested on: Escherichia coli NCTC 12923
Klebsiella pneumoniae M6 = tested on: Klebsiella pneumoniae M6
[17] = tested on: Klebsiella pneumoniae NCTC 13368
[18] = tested on: Pseudomonas aeruginosa NCTC 13437
[19] = tested on: Pseudomonas aeruginosa PAO1
[20] = tested on: Staphylococcus aureus ATCC 25923
[21] = tested on: Staphylococcus aureus ATCC 9144
[22] = tested on: Staphylococcus aureus NCTC 13616
[23] = tested on: Staphylococcus aureus USA 300
Staphylococcus aureus = tested on: Staphylococcus aureus
[24] = tested on: Acinetobacter baumannii Ab11
[25] = tested on: Acinetobacter baumannii CR17
[26] = tested on: Acinetobacter baumannii CR86
[27] = tested on: Escherichia coli ATCC 11303
Escherichia coli BL21 = tested on: Escherichia coli BL21
[28] = tested on: Escherichia coli KpC+001812446
[29] = tested on: Klebsiella pneumoniae ATCC 13883
[30] = tested on: Klebsiella pneumoniae KpC+001825971
[31] = tested on: Staphylococcus aureus ATCC 259230
[32] = tested on: Staphylococcus aureus ATCC 6538P
[33] = tested on: Staphylococcus aureus ATCC BAA-41
[34] = tested on: Staphylococcus epidermidis
[35] = tested on: Candida albicans CIB 45437
[36] = tested on: Escherichia coli CIB 84492
[37] = tested on: Staphylococcus aureus CIB 85462
[38] = tested on: Batrachochytrium dendrobatidis JEL-197
[39] = tested on: Candida albicans ATCC 90028
[40] = tested on: Escherichia coli ATCC 25726

For `CC[C@H](C)[C@H](NC(=O)CNC(=O)[C@H](CC(N)=O)NC(=O)[C@H](Cc1c[nH]c2ccccc12)NC(=O)[C@@H](NC(=O)[C@@H](NC(=O)[C@H](CO)NC(=O)[C@H](CC(C)C)NC(=O)[C@@H](N)Cc1ccccc1)[C@@H](C)O)[C@@H](C)CC)C(=O)N[C@@H](CCCCN)C(=O)N[C@@H](CO)C(=O)N[C@@H](CC(C)C)C(=O)N[C@@H](CC(C)C)C(=O)O` [FLSTIWNGIKSLL], the MIC [1] was 6 µM (≈ 8.95 µg/mL), the MIC [2] was 17 µM (≈ 25.4 µg/mL) and the MIC [3] was at least 87 µM. For the same compound, the MIC (Enterococcus sp. S13) was 4 µM (≈ 5.97 µg/mL), the MIC [4] was at least 36 µM and the MIC [5] was at least 87 µM. It also gave an MIC [6] of 8 µM (≈ 11.9 µg/mL), an MIC (Pseudomonas putida) of at least 87 µM and an MIC [7] of at least 84 µM. For the same compound, the MIC [8] was 12 µM (≈ 17.9 µg/mL) and the MIC [9] was 16 µM (≈ 23.9 µg/mL).
Work on `CC[C@H](C)[C@H](NC(=O)[C@@H](N)CCCCN)C(=O)N[C@@H](C)C(=O)N[C@@H](CCCCN)C(=O)N[C@H](C(=O)N[C@@H](C)C(=O)N[C@@H](CC(C)C)C(=O)N[C@@H](CCCCN)C(=O)N[C@@H](C)C(=O)N[C@@H](CC(C)C)C(N)=O)C(C)C` [KIAKVALKAL] yielded an MIC [10] of at least 121 µM, an MIC [11] of at least 121 µM and an MIC (Bacillus subtilis) of 13.7 µM (≈ 14.4 µg/mL). It also gave an MIC [12] of at least 121 µM, an MIC (Candida krusei NCPF 3876) of at least 121 µM and an MIC [13] of at least 121 µM. For the same compound, the MIC [14] was at least 121 µM, the MIC [15] was 22.4 µM (≈ 23.6 µg/mL) and the MIC (Escherichia coli LEC001) was at least 121 µM. For the same compound, the MIC [16] was at least 121 µM, the MIC (Klebsiella pneumoniae M6) was at least 121 µM and the MIC [17] was at least 121 µM. The MIC [18] was at least 121 µM, the MIC [19] was over 121 µM and the MIC [20] was 8.25 µM (≈ 8.69 µg/mL). It also gave an MIC [21] of at least 121 µM, an MIC [22] of at least 121 µM and an MIC [23] of at least 121 µM. It also gave an MIC (Staphylococcus aureus) of 64.3 µM (≈ 67.7 µg/mL).
Compound `CC[C@H](C)[C@H](NC(C)=O)C(=O)N[C@@H](CC(N)=O)C(=O)N[C@@H](CC(C)C)C(=O)N[C@@H](CCCCN)C(=O)N[C@@H](C)C(=O)N[C@@H](CC(C)C)C(=O)N[C@@H](C)C(=O)N[C@@H](C)C(=O)N[C@@H](CC(C)C)C(=O)N[C@@H](C)C(=O)N[C@@H](CCCCN)C(=O)N[C@@H](CCCCN)C(=O)N[C@H](C(=O)N[C@@H](CC(C)C)C(N)=O)[C@@H](C)CC` [INLKALAALAKKIL] has an MIC [24] of at least 42 µM, an MIC [25] of 10.5 µM (≈ 16 µg/mL) and an MIC [26] of 21 µM (≈ 31.9 µg/mL).
In the case of `CC[C@H](C)[C@H](NC(=O)[C@H](CCCCN)NC(=O)[C@H](CCCCN)NC(=O)[C@H](Cc1ccccc1)NC(=O)[C@H](CC(C)C)NC(=O)[C@H](CCCCN)NC(=O)[C@H](Cc1c[nH]c2ccccc12)NC(=O)[C@@H](N)CCCCN)C(=O)NCC(=O)N[C@@H](C)C(=O)N[C@H](C(=O)N[C@@H](CC(C)C)C(=O)N[C@@H](CCCCN)C(=O)N[C@H](C(=O)N[C@@H](CC(C)C)C(=O)O)C(C)C)C(C)C` [KWKLFKKIGAVLKVL], the MIC [27] is reported as at least 50 µM, the MIC [15] is reported as 5 µM (≈ 8.86 µg/mL) and the MIC (Escherichia coli BL21) is reported as 0.707 µM (≈ 1.25 µg/mL). The MIC [28] was 5 µM (≈ 8.86 µg/mL), the MIC [29] was at least 36 µM and the MIC [30] was 9 µM (≈ 15.9 µg/mL). For the same compound, the MIC [19] was 2.83 µM (≈ 5.01 µg/mL), the MIC [31] was at least 50 µM and the MIC [32] was 1 µM (≈ 1.77 µg/mL). It also gave an MIC [33] of 1.41 µM (≈ 2.5 µg/mL) and an MIC [34] of 0.707 µM (≈ 1.25 µg/mL).
In the case of `CC[C@H](C)[C@H](NC(=O)CN)C(=O)N[C@@H](Cc1ccccc1)C(=O)NCC(=O)N[C@@H](CCCCN)C(=O)N[C@H](C(=O)N[C@@H](CC(C)C)C(=O)NCC(=O)N[C@@H](C)C(=O)NCC(=O)N[C@@H](CCCCN)C(=O)N[C@@H](CCCCN)C(=O)N[C@H](C(=O)N[C@@H](CC(C)C)C(=O)N[C@H]1CSSC[C@@H](C(=O)O)NC(=O)[C@H](CC(C)C)NC(=O)CNC(=O)[C@H](CO)NC(=O)[C@H](CC(C)C)NC(=O)CNC1=O)C(C)C)[C@@H](C)CC` [GIFGKILGAGKKVLCGLSGLC], the MIC [35] is reported as at least 62.9 µM, the MIC [15] is reported as 15.7 µM (≈ 32 µg/mL) and the MIC [36] is reported as 15.7 µM (≈ 32 µg/mL). For the same compound, the MIC [20] was 15.7 µM (≈ 32 µg/mL) and the MIC [37] was 7.86 µM (≈ 16 µg/mL).
`CC[C@H](C)[C@H](NC(=O)[C@H](Cc1ccccc1)NC(=O)[C@H](CCCCN)NC(=O)[C@H](CCCCN)NC(=O)[C@H](C)NC(=O)[C@H](CC(C)C)NC(=O)[C@H](CC(N)=O)NC(=O)[C@@H](NC(=O)[C@H](CC(C)C)NC(=O)[C@@H](NC(=O)[C@H](CC(=O)O)NC(=O)[C@H](CC(C)C)NC(=O)[C@H](Cc1ccccc1)NC(=O)[C@@H](N)CC(N)=O)[C@@H](C)O)[C@@H](C)CC)C(N)=O` [NFLDTLINLAKKFI] was tested, and the MIC [38] was 25 µM (≈ 41.2 µg/mL), the MIC [39] was at least 50 µM and the MIC [40] was at least 100 µM. For the same compound, the MIC [20] was 50 µM (≈ 82.5 µg/mL).
